Results reported in patent publication US20230048678A1, “ICAN DERIVATIVES FOR ANTIFUNGAL USE” (DEBRECENI EGYETEM, priority 2019, published 2023).

Key:
C. albicans 3666 = assay: Time-lapse imaging of fungal growth in infected HaCat cultures; assay type: cell-based; conditions: 7.5 μg/ml, HaCat cells infected with C. albicans 3666, 24 h; DMSO control exceeded 1000%
Excerpt: As we mentioned in the Background art, studies have been carried out to successfully utilize 1-N-methylamino-5-isocyanonaphthalene (MICAN) as vital cell dye on different human cell lines [Nagy Z L, 2018]. […] Since these dyes are nonpolar, they are expected to easily bind to and stain the nonpolar chitin in the cell wall of different fungi species. We tested this assumption on common yeast from a local shop, and much to our surprise after staining, the yeast cells stopped growing and died in a short time. Repeated experiments led to the same conclusion; however, the applied dye concentration was well below the LD50 determined for human cells. […] It should be noted, however, that in the case of the untreated HaCat cells the fungal growth exceeded 1000% (24 h) calculated from the hyphal area (FIG. 1b, DMSO control). […]
Image analysis plug-ins were developed by a Java-based image processing software, The ImageJ v1.39d (US National Institutes of Health) program enabled the quantitative analysis of fungi. The software is requesting a set of data for the analysis from the user, along with the directory in which the bank of images to be analysed are contained. Image processing and quantitative image analysis were carried out as previously described [Nagy G, 2014]. […]

[1] = system: C. albicans SC5314, C. krusei ATCC 6258 and C. parapsilosis ATCC 22019; assay: CLSI broth microdilution, MIC summarised over the three Candida test strains; assay type: cell-based; conditions: value or range over the three Candida strains of Table 1, total inhibition
Protocol: (§1) ICAN has 3 key moieties, namely the amino, naphthalene and isonitrile. To find out which ones of them are essential for the antifungal behavior and to design more efficient derivatives, comparative studies were carried out, where one of the moieties was exchanged or eliminated. All ICAN derivatives were tested against C. albicans SC5314, C. krusei ATCC 6258 and C. parapsilosis ATCC 22019. The antifungal agents were dissolved in 100% DMSO and diluted further in RPMI-1640 (with L-glutamine but without bicarbonate) and buffered to pH 7.0 with 0.165 M morpholinopropanesulfonic acid (MOPS). MICs were read visually after 48-h incubation at 35° C. using the partial (50%) inhibition (for ICAN derivatives) (PI) and total inhibition (for AMB and ICAN derivatives) (TI) criteria. MICs were determined at least twice.
(§2) The tested C. albicans, C. tropicalis, C. parapsilosis, C. glabrata and C. krusei ATCC strains and clinical isolates are listed in Table 2. MICs were determined according to the CLSI M27-A3 [22]. Antifungal agents were dissolved in 100% DMSO and diluted further in RPMI-1640 (with L-glutamine but without bicarbonate) (Sigma, Budapest, Hungary), and buffered to pH 7.0 with 0.165 M morpholinopropanesulfonic acid (MOPS; Sigma, Budapest, Hungary). The final concentration ranges used for AMB and ICAN derivatives were 0.125 to 4 μg/ml and 0.04 to 20 μg/ml, respectively. Yeast cell suspensions were prepared in RPMI 1640 medium and were adjusted to give a final inoculum concentration of 0.5×10^3 to 2.5×10^3 cells/ml. MICs were read visually after 48-h incubation at 35° C. using the partial (50%) inhibition (for ICAN derivatives) (PI) and total inhibition (for AMB and ICAN derivatives) (TI) criteria. MICs were determined at least twice. For amphotericin B isolates with MIC values of ≤2 mg/L were considered wild-types. [Pfaller M A, 2012]

HaCat cells = assay: HaCat cell damage during time-lapse imaging; assay type: cell-based, human; conditions: under 24 hours, MICAN-treated infected cultures
Excerpt: (§3) As we mentioned in the Background art, studies have been carried out to successfully utilize 1-N-methylamino-5-isocyanonaphthalene (MICAN) as vital cell dye on different human cell lines [Nagy Z L, 2018]. […] Since these dyes are nonpolar, they are expected to easily bind to and stain the nonpolar chitin in the cell wall of different fungi species. We tested this assumption on common yeast from a local shop, and much to our surprise after staining, the yeast cells stopped growing and died in a short time. Repeated experiments led to the same conclusion; however, the applied dye concentration was well below the LD50 determined for human cells. We assumed that these compounds may have antifungal effect, therefore C. albicans, one of the most common human pathogenic fungi was selected for further tests. HaCat cell cultures (spontaneously transformed aneuploid immortal keratinocyte cells from adult human skin) were infected with C. albicans 3666 (same isolate as used in animal experiments) and were treated with different concentrations of MICAN dissolved in DMSO. The fungal growth was followed by time lapse imaging for 24 hours. […] It should be noted, however, that in the case of the untreated HaCat cells the fungal growth exceeded 1000% (24 h) calculated from the hyphal area (FIG. 1b, DMSO control).

C. krusei ATCC 6258 = assay: CLSI broth microdilution susceptibility (Table 1); assay type: cell-based; conditions: 48 h, 35° C.
Protocol: as §1, §2

[2] = system: C. parapsilosis ATCC 22019; assay: CLSI broth microdilution susceptibility (Table 1); assay type: cell-based; conditions: 48 h, 35° C.
Protocol: as §1, §2

C. albicans SC5314 = assay: CLSI broth microdilution susceptibility (Table 1); assay type: cell-based; conditions: 48 h, 35° C.
Protocol: as §1, §2

human cell cultures = assay: MTT bio assay cytotoxicity; assay type: cell-based; conditions: MTT bio assay technique
[3] = system: commercial strain of Saccharomyces cerevisiae; assay: Staining/growth of common yeast; assay type: cell-based
Excerpt: as §3

SMILES: [C-]#[N+]c1cccc2c(NC)cccc12 [MICAN, N-methyl-1-amino-5-isocyanonaphthalene]
- fungal growth calculated from the hyphal area (C. albicans 3666): ~30%
- MICTI [1]: 0.75 to 1.25 µg/mL
- damage of treated HaCat cells (HaCat cells): no sign of damage
- MICPI (C. krusei ATCC 6258; partial (50%) inhibition): 0.15 µg/mL
- MICTI (C. krusei ATCC 6258; total inhibition): 1.25 µg/mL
- MICPI ([2]; partial (50%) inhibition): 0.15 µg/mL
- MICTI ([2]; total inhibition): 0.75 µg/mL
- MICPI (C. albicans SC5314; partial (50%) inhibition): 0.3 µg/mL
- MICTI (C. albicans SC5314; total inhibition): 1.25 µg/mL
- LD50 (human cell cultures): 18 µg/mL
- antifungal effect on yeast [3]: effective
